Values belong to the molecule of their own block, whether it stands above or below them.
System: NCI-H929 complex spheroids, viability % test/control
Test: Anticancer human tumor NCI-H929 cell line growth inhibition [RAS];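 further: compound exposure lasted seven days before viability was read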
Conditions: for IC50: curve of first compound; for viability, T/C: stronger effect = lower value
Text: RAS pathway inhibitors in Combinations in Complex Spheroids
A high-throughput screen of multi-cell type tumor spheroids was designed to identify active combinations of RAS pathway inhibitors and targeted small molecules. Complex spheroids include a stromal component modeled by human endothelial cells (HUVEC) and fibroblasts modeled by human mesenchymal stem cells (MSCs). The concentration ranges selected for each drug and investigational agent were based upon clinically achievable concentrations if the clinical Cmax of the agent was known.
Compounds. The drugs and investigational agents: abemaciclib (NSC768073), cobimetinib (NSC768068), divarasib (GDC6063, NSC841802), docetaxel (NSC628503), GDC-1971 (RLY-1971, NSC841576), gemcitabine (NSC613327), inavolisib (NSC800729), ipatasertib (NSC767898), KB-0742 (NSC834161), MRTX-1133 (NSC836407), osimertinib (NSC779217), RMC-4630 (NSC839698), RMC-6236 (NSC851965), RMC-6291 (NSC852671), Ro-3306 (NSC812927), sapanisertib (NSC764658), SN-38 (NSC673596), staurosporine (NSC755774), SY5609 (NSC837396), and tovorafenib (DAY101, NSC766906), were obtained from the National Cancer Institute (NCI) Developmental Therapeutics Program Chemical Repository. The FDA-approved anticancer drug set is available from the NCI Developmental Therapeutics Program. […] The stock solutions were prepared in dimethyl sulfoxide (DMSO, Sigma-Aldrich, St. Louis, MO, cat. D2650) at 800-fold the tested concentration and stored at -70 degrees C prior to their use. All drugs and investigational agents were tested over a range starting from a high concentration at or near the clinical Cmax and decreasing in half-log increments. If the clinical Cmax for an agent had not been determined, the highest concentration tested was 10 microM.
Cell Culture. All cells were maintained in an incubator at 37 degrees C and 5% CO2 with 95% humidity. The PDC lines were cultured according to standard operating procedures established by the NCI PDMR. All PDCs were thawed and cultured in Matrigel-coated flasks prepared with a working solution of 1X Ham's F-12 nutrient mix, without supplementation (Invitrogen, Waltham, MA, cat. 11765054), 100 U/mL penicillin-streptomycin (Invitrogen, cat. 15140122), and 2.5% Matrigel (Corning Inc., Corning, NY, cat. 354248) for the first three passages. The 362531-283-R-J2-PDC and 782815-120-R-J1-PDC lines were cultured in 6C/Colon 1B media, which includes advanced DMEM/F-12 (Thermo Fisher Scientific, cat. 12634028), 10 mM HEPES (Thermo Fisher Scientific, cat. 15630080), 1X GlutaMAX supplement (Thermo Fisher Scientific, cat. 35050061), 0.1 mg/mL primocin (InvivoGen, San Diego, CA, cat. ant-pm-2), 10% defined fetal bovine serum, heat inactivated (HyClone Laboratories Inc., Logan, UT, cat. SH30070.03HI), 50% L-WRN conditioned media (ATCC, cat. CRL-3276), 1.25 mM N-Acetyl-L-cysteine (Sigma-Aldrich, cat. A9165), 10 mM nicotinamide (Sigma-Aldrich, cat. N0636), 1X B-27 supplement (Thermo Fisher Scientific, cat. 17504044), 1X N-2 supplement (Thermo Fisher Scientific, cat. 17502048), 50 ng/mL human EGF (Thermo Fisher Scientific, cat. PHG0311), and 10 microM Y-27632 dihydrochloride (Tocris Bioscience, cat. 1254). The K12877-001-R-J1-PDC line was cultured in 6I media, which includes all 6C/Colon 1B media plus 10 ng/mL human FGF-10 (PeproTech, cat. 100-26), 1 ng/mL human FGF-2 (PeproTech, cat. 100-18B), 1 µM prostaglandin E2 (Tocris Bioscience, cat. 2296), […] hydrocortisone (Sigma-Aldrich, cat. H4001), and […] bovine insulin (Sigma-Aldrich, cat. I6634). The K86415-001-R-J1-PDC line was cultured in 6D media, which includes all 6C/Colon 1B media components minus the L-WRN conditioned media. The 485176-168-R4-J1-PDC was cultured in PANC media, which includes all 6C/Colon 1B media plus 100 ng/mL human FGF-10 (PeproTech, cat. 100-26), 500 nM SB-431542 (Selleckchem, cat. S1067), and 10 nM gastrin (Tocris Bioscience, cat. 3006). […]

[1] = second compound 0.000949 µM, first compound 0.0316 µM
[2] = second compound 0.000949 µM, first compound 0.1 µM
[3] = second compound 0.003 µM, first compound 0.0316 µM
[4] = second compound 0.003 µM, first compound 0.1 µM
[5] = second compound 0.00949 µM, first compound 0.0316 µM
[6] = second compound 0.00949 µM, first compound 0.1 µM
[7] = second compound 0.03 µM, first compound 0.0316 µM
[8] = second compound 0.03 µM, first compound 0.1 µM
[9] = second compound 0.0949 µM, first compound 0.0316 µM
[10] = second compound 0.0949 µM, first compound 0.1 µM
[11] = second compound 0.3 µM, first compound 0.0316 µM
[12] = second compound 0.3 µM, first compound 0.1 µM

IC50 (second compound 0.000949 µM): 55 nM | IC50 (second compound 0.003 µM): 55 nM | IC50 (second compound 0.00949 µM): 29.2 nM | IC50 (second compound 0.03 µM): 2.58 nM | IC50 (second compound 0.0949 µM): < 0.316 nM | IC50 (second compound 0.3 µM): < 0.316 nM
SMILES: CC(C)n1nc(-c2ccc3oc(N)nc3c2)c2c(N)ncnc21 + CCn1c(-c2cc(N3CCN(C)CC3)cnc2C(C)OC)c2c3cc(ccc31)-c1csc(n1)CC(NC(=O)C1CC1C)C(=O)N1CCCC(N1)C(=O)OCC(C)(C)C2
viability, T/C (second compound 0.000949 µM, first compound 0.000316 µM): 103% | viability, T/C (second compound 0.000949 µM, first compound 0.001 µM): 101% | viability, T/C (second compound 0.000949 µM, first compound 0.00316 µM): 111% | viability, T/C (second compound 0.000949 µM, first compound 0.01 µM): 110% | viability, T/C [1]: 93.2% | viability, T/C [2]: 3.1% | viability, T/C (second compound 0.003 µM, first compound 0.000316 µM): 97.5% | viability, T/C (second compound 0.003 µM, first compound 0.001 µM): 95.7% | viability, T/C (second compound 0.003 µM, first compound 0.00316 µM): 101% | viability, T/C (second compound 0.003 µM, first compound 0.01 µM): 114% | viability, T/C [3]: 93% | viability, T/C [4]: 3.74% | viability, T/C (second compound 0.00949 µM, first compound 0.000316 µM): 108% | viability, T/C (second compound 0.00949 µM, first compound 0.001 µM): 114% | viability, T/C (second compound 0.00949 µM, first compound 0.00316 µM): 119% | viability, T/C (second compound 0.00949 µM, first compound 0.01 µM): 120% | viability, T/C [5]: 45.1% | viability, T/C [6]: 1.87% | viability, T/C (second compound 0.03 µM, first compound 0.000316 µM): 74.5% | viability, T/C (second compound 0.03 µM, first compound 0.001 µM): 74.2% | viability, T/C (second compound 0.03 µM, first compound 0.00316 µM): 39.7% | viability, T/C (second compound 0.03 µM, first compound 0.01 µM): 26.1% | viability, T/C [7]: 4.36% | viability, T/C [8]: 0.46% | viability, T/C (second compound 0.0949 µM, first compound 0.000316 µM): 7.99% | viability, T/C (second compound 0.0949 µM, first compound 0.001 µM): 7.3% | viability, T/C (second compound 0.0949 µM, first compound 0.00316 µM): 2.87% | viability, T/C (second compound 0.0949 µM, first compound 0.01 µM): 1.59% | viability, T/C [9]: 0.69% | viability, T/C [10]: 0.3% | viability, T/C (second compound 0.3 µM, first compound 0.000316 µM): 3.49% | viability, T/C (second compound 0.3 µM, first compound 0.001 µM): 2.63% | viability, T/C (second compound 0.3 µM, first compound 0.00316 µM): 1.48% | viability, T/C (second compound 0.3 µM, first compound 0.01 µM): 0.92% | viability, T/C [11]: 0.47% | viability, T/C [12]: 0.34%

IC50 (second compound 0.000949 µM): < 31.6 nM | IC50 (second compound 0.003 µM): < 31.6 nM | IC50 (second compound 0.00949 µM): < 31.6 nM | IC50 (second compound 0.03 µM): < 31.6 nM | IC50 (second compound 0.0949 µM): < 31.6 nM | IC50 (second compound 0.3 µM): < 31.6 nM
SMILES: CC(=O)OC12COC1CC(O)C1(C)C(=O)C(O)C3=C(C)C(OC(=O)C(O)C(NC(=O)OC(C)(C)C)c4ccccc4)CC(O)(C(OC(=O)c4ccccc4)C21)C3(C)C (centres undefined) + CCn1c(-c2cccnc2C(C)OC)c2c3cc(ccc31)N1CCOC(CC(NC(=O)C(C(C)C)N(C)C(=O)C3(F)CCN(C(=O)C#CC(C)(C)N(C)C)CC3)C(=O)N3CCCC(N3)C(=O)OCC(C)(C)C2)C1
viability, T/C [1]: 0.74% | viability, T/C [2]: 0.57% | viability, T/C (second compound 0.000949 µM, first compound 0.316 µM): 0.52% | viability, T/C (second compound 0.000949 µM, first compound 1 µM): 0.54% | viability, T/C (second compound 0.000949 µM, first compound 3.16 µM): 0.6% | viability, T/C (second compound 0.000949 µM, first compound 10 µM): 0.65% | viability, T/C [3]: 0.76% | viability, T/C [4]: 0.89% | viability, T/C (second compound 0.003 µM, first compound 0.316 µM): 0.7% | viability, T/C (second compound 0.003 µM, first compound 1 µM): 0.54% | viability, T/C (second compound 0.003 µM, first compound 3.16 µM): 0.6% | viability, T/C (second compound 0.003 µM, first compound 10 µM): 0.71% | viability, T/C [5]: 0.76% | viability, T/C [6]: 0.82% | viability, T/C (second compound 0.00949 µM, first compound 0.316 µM): 0.62% | viability, T/C (second compound 0.00949 µM, first compound 1 µM): 0.64% | viability, T/C (second compound 0.00949 µM, first compound 3.16 µM): 0.66% | viability, T/C (second compound 0.00949 µM, first compound 10 µM): 0.68% | viability, T/C [7]: 0.73% | viability, T/C [8]: 0.53% | viability, T/C (second compound 0.03 µM, first compound 0.316 µM): 0.75% | viability, T/C (second compound 0.03 µM, first compound 1 µM): 0.63% | viability, T/C (second compound 0.03 µM, first compound 3.16 µM): 0.5% | viability, T/C (second compound 0.03 µM, first compound 10 µM): 0.52% | viability, T/C [9]: 0.63% | viability, T/C [10]: 0.57% | viability, T/C (second compound 0.0949 µM, first compound 0.316 µM): 0.51% | viability, T/C (second compound 0.0949 µM, first compound 1 µM): 0.63% | viability, T/C (second compound 0.0949 µM, first compound 3.16 µM): 0.58% | viability, T/C (second compound 0.0949 µM, first compound 10 µM): 0.72% | viability, T/C [11]: 0.63% | viability, T/C [12]: 0.68% | viability, T/C (second compound 0.3 µM, first compound 0.316 µM): 0.63% | viability, T/C (second compound 0.3 µM, first compound 1 µM): 0.6% | viability, T/C (second compound 0.3 µM, first compound 3.16 µM): 0.65% | viability, T/C (second compound 0.3 µM, first compound 10 µM): 0.71%
